# Experimental data as given in patent US6677347B2, “Sulfonamido ether substituted imidazoquinolines” (3M Innovative Properties Company, priority 2000, dated 2004).
# Tested on: interferon (α)
# Assay: Cytokine Induction in Human Cells: interferon (α) by ELISA
# Assay type: cell-based
# Settings: human PBMC, 18 to 24 hours incubation, lowest concentration found to induce interferon
# Excerpt: (§1) An in vitro human blood cell system is used to assess cytokine induction. Activity is based on the measurement of interferon and tumor necrosis factor (α) (IFN and TNF, respectively) secreted into culture media as described by Testerman et. al. In “Cytokine Induction by the Immunomodulators Imiquimod and S-27609”, Journal of Leukocyte Biology, 58, 365-372 (September, 1995).
# (§2) Whole blood from healthy human donors is collected by venipuncture into EDTA vacutainer tubes. Peripheral blood mononuclear cells (PBMC) are separated from whole blood by density gradient centrifugation using Histopaque®-1077. Blood is diluted 1:1 with Dulbecco's Phosphate Buffered Saline (DPBS) or Hank's Balanced Salts Solution (HBSS). The PBMC layer is collected and washed twice with DPBS or HBSS and resuspended at 4×10^6 cells/mL in RPMI complete. The PBMC suspension is added to 48 well flat bottom sterile tissue culture plates (Costar, Cambridge, Mass. or Becton Dickinson Labware, Lincoln Park, N.J.) containing an equal volume of RPMI complete media containing test compound.
# (§3) The compounds are solubilized in dimethyl sulfoxide (DMSO). The DMSO concentration should not exceed a final concentration of 1% for addition to the culture wells. The compounds are generally tested at concentrations ranging from 30-0.014 μM.
# (§4) The solution of test compound is added at 60 μM to the first well containing RPMI complete and serial 3 fold dilutions are made in the wells. The PBMC suspension is then added to the wells in an equal volume, bringing the test compound concentrations to the desired range (30-0.014 μM). The final concentration of PBMC suspension is 2×10^6 cells/mL. The plates are covered with sterile plastic lids, mixed gently and then incubated for 18 to 24 hours at 37° C. in a 5% carbon dioxide atmosphere.
# (§5) Following incubation the plates are centrifuged for 10 minutes at 1000 rpm (˜200×g) at 4° C. The cell-free culture supernatant is removed with a sterile polypropylene pipet and transferred to sterile polypropylene tubes. Samples are maintained at −30 to −70° C. until analysis. The samples are analyzed for interferon (α) by ELISA and for tumor necrosis factor (α) by ELISA or IGEN Assay
# Interferon (α) concentration is determined by ELISA using a Human Multi-Species kit from PBL Biomedical Laboratories, New Brunswick, N.J. Results are expressed in pg/mL.
# (§6) The table below lists the lowest concentration found to induce interferon and the lowest concentration found to induce tumor necrosis factor for each compound.
row,Structure (SMILES),minimal effective concentration [µM]
1,"COCCc1nc2c(N)nc3ccccc3c2n1CCOCCN(C)S(C)(=O)=O [Example 3, N-(2-{2-[4-amino-2-(2-methoxyethyl)-1H-imidazo[4,5-c]quinolin-1-yl]ethoxy}ethyl)-N-methylmethanesulfonamide]",0.01
2,CCC(COCCC1CCN(S(=O)(=O)c2cccc(F)c2)CC1)n1cnc2c(N)nc3ccccc3c21 (stereo not drawn) [Example 32],1

# Tested on: tumor necrosis factor (α)
# Assay: Cytokine Induction in Human Cells: tumor necrosis factor (α) by ELISA or IGEN assay
# Assay type: cell-based
# Settings: human PBMC, 18 to 24 hours incubation, lowest concentration found to induce tumor necrosis factor
# Excerpt: as §1, §2, §3, §4, §5
# Tumor necrosis factor (α) (TNF) concentration is determined using ELISA kits available from Biosource International, Camarillo, Calif. Alternately, the TNF concentration can be determined by Origen® M-Series Immunoassay and read on an IGEN M-8 analyzer from IGEN International, Gaithersburg, Md. The immunoassay uses a human TNF capture and detection antibody pair from Biosource International, Camarillo, Calif. Results are expressed in pg/mL.
# as §6
row,Structure (SMILES),minimal effective concentration [µM]
1,"COCCc1nc2c(N)nc3ccccc3c2n1CCOCCN(C)S(C)(=O)=O [Example 3, N-(2-{2-[4-amino-2-(2-methoxyethyl)-1H-imidazo[4,5-c]quinolin-1-yl]ethoxy}ethyl)-N-methylmethanesulfonamide]",0.12
2,CCC(COCCC1CCN(S(=O)(=O)c2cccc(F)c2)CC1)n1cnc2c(N)nc3ccccc3c21 (stereo not drawn) [Example 32],1

# Tested on: not given
# Assay: not given
# Settings: not given
row,Structure (SMILES),melting point [°C]
1,"CCOCc1nc2c(N)nc3ccccc3c2n1CCOCCNS(=O)(=O)C(C)C [Example 58, N-(2-{2-[4-amino-2-(ethoxymethyl)-1H-imidazo[4,5-c]quinolin-1-yl]ethoxy}ethyl)propane-2-sulfonamide]",139 to 142
2,"Cc1nc2c(N)nc3ccccc3c2n1CCOCCN [Example 51, 1-[2-(2-aminoethoxy)ethyl]-2-methyl-1H-imidazo[4,5-c]quinolin-4-amine]",155 to 157
3,"CCCCc1nc2c(N)nc3ccccc3c2n1CCOCCN1CCCS1(=O)=O [Example 5, 2-Butyl-1-{2-[2-(1,1-dioxidoisothiazolidin-2-yl)ethoxy]ethyl}-1H-imidazo[4,5-c]quinolin-4-amine]",152 to 154
4,"COCCc1nc2c(N)nc3ccccc3c2n1CCOCCNS(C)(=O)=O [Example 1, N-(2-{2-[4-amino-2-(2-methoxyethyl)-1H-imidazo[4,5-c]quinolin-1-yl]ethoxy}ethyl)methanesulfonamide]",114 to 117
5,"CCc1nc2c(N)nc3ccccc3c2n1CCOCCNS(C)(=O)=O [Example 56, N-{2-[2-(4-amino-2-ethyl-1H-imidazo[4,5-c]quinolin-1-yl)ethoxy]ethyl}methanesulfonamide]",169 to 171
6,"Cc1nc2c(N)nc3ccccc3c2n1CCOCCN1CCCS1(=O)=O [Example 60, 1-{2-[2-(1,1-Dioxidoisothiazolidin-2-yl)ethoxy]ethyl}-2-methyl-1H-imidazo[4,5-c]quinolin-4-amine]",186 to 187
7,"Cc1nc2c(N)nc3ccccc3c2n1CCOCCNS(C)(=O)=O [Example 54, N-{2-[2-(4-amino-2-methyl-1H-imidazo[4,5-c]quinolin-1-yl)ethoxy]ethyl}methanesulfonamide]",152 to 155

# Now from value to molecule:
row,melting point [°C],Structure (SMILES)
1,151 to 153,"COCCc1nc2c(N)nc3c(c2n1CCOCCNS(C)(=O)=O)CCCC3 [Example 2, N-(2-{2-[4-amino-2-(2-methoxyethyl)-6,7,8,9-tetrahydro-1H-imidazo[4,5-c]quinolin-1-yl]ethoxy}ethyl)methanesulfonamide]"
2,172 to 175,"Cc1nc2c(N)nc3ccccc3c2n1CCOCCNS(=O)(=O)C(C)C [Example 55, N-{2-[2-(4-amino-2-methyl-1H-imidazo[4,5-c]quinolin-1-yl)ethoxy]ethyl}propane-2-sulfonamide]"
3,152 to 155,"CCOCc1nc2c(N)nc3ccccc3c2n1CCOCCNS(C)(=O)=O [Example 57, N-(2-{2-[4-amino-2-(ethoxymethyl)-1H-imidazo[4,5-c]quinolin-1-yl]ethoxy}ethyl)methanesulfonamide]"
4,144 to 146,"CCc1nc2c(N)nc3ccccc3c2n1CCOCCN [Example 52, 1-[2-(2-aminoethoxy)ethyl]-2-ethyl-1H-imidazo[4,5-c]quinolin-4-amine]"
5,129.7 to 130.2,"COCCc1nc2c(N)nc3ccccc3c2n1CCOCCN(C)S(=O)(=O)C(C)C [Example 59, N-(2-{2-[4-amino-2-(2-methoxyethyl)-1H-imidazo[4,5-c]quinolin-1-yl]ethoxy}ethyl)-N-methylpropane-2-sulfonamide]"
6,115.3 to 117.8,"COCCc1nc2c(N)nc3c(c2n1CCOCCN(C)S(C)(=O)=O)CCCC3 [Example 4, N-(2-{2-[4-amino-2-(2-methoxyethyl)-6,7,8,9-tetrahydro-1H-imidazo[4,5-c]quinolin-1-yl]ethoxy}ethyl)-N-methylmethanesulfonamide]"
7,145 to 146.5,"COCCc1nc2c(N)nc3ccccc3c2n1CCOCCN(C)S(C)(=O)=O [Example 3, N-(2-{2-[4-amino-2-(2-methoxyethyl)-1H-imidazo[4,5-c]quinolin-1-yl]ethoxy}ethyl)-N-methylmethanesulfonamide]"
